The nature of the series: Human HepG2 cell viability assay in 384 well format. It counts as toxicity, cell-based. The arrangement: dose 125 nL, time 70.5 hour; concentration not given beside the values. To be noted: HepG2 cells, read-out: Inhibition.
On to `CC(=O)Nc1nc2c(s1)C1(CCN(C)CC1)Nc1ccccc1S2`, for which the cytotoxicity at 70.5 h was found to be 3.04%.
Under `COC(=O)c1sc(C(F)(F)F)cc1OC` stands -12.4%; under `COc1ccccc1N1CCC(CNC(=O)CN2CSCC2=O)C1` (stereo unspecified), -7.92%; under `CC(C)(NC(=O)Cc1ccccc1F)C(=O)O`, -4.89%.
Consider `c1nc2c(c(NC3CCc4ncnn4C3)n1)CCC2` (stereo unspecified), for which the cytotoxicity at 70.5 h is -8.75%.
To `COc1cc(C(=O)NC(C)c2cccs2)cc2c1OCCO2` (stereo unspecified) belongs -9.64%; to `Cc1noc(Cl)c1CCC(=O)N1CCN(CC(C)(C)O)CC1`, 7.84%; to `Cn1cccc1C(=O)N1CC[C@H]2[C@H]1CCN2CC1CC1`, -0.69%.
Under `Cc1cnn(CCC(=O)N2CCCN(c3ncccc3C#N)CC2)c1` stands 0.758%.
To `O=C(c1ccnn1-c1ccc2ccccn12)N1CCOCC1` belongs -3.59%; to `CS(=O)(=O)NCc1nnc2n1CCN(Cc1ccc(F)cc1)C2`, -3.88%; to `CN1CCN(Cc2cscn2)CC(C(=O)N(C)C)C1` (stereo unspecified), 15.4%.
On to `O=C(NCCCOc1cccnc1)c1cn(CCc2ccccc2)nn1`, for which the cytotoxicity at 70.5 h was -7.58%.
Under `COc1cc(CN2CC[C@@H](N3CCCCCC3)[C@H](O)C2)cc(Cl)c1OC` stands -4.33%; under `Cc1nc(C)c(C)c(N2CCC(NCCOc3ccccc3)CC2)n1`, 17.8%.
Under `NC(=O)c1csc(C(=O)N2CCCC(n3cccn3)C2)c1` (stereo unspecified) stands 1.27%; under `CN(C)CCN1CCOCC2(C1)CN(Cc1nccs1)CCO2` (stereo unspecified), 16.3%; under `Cc1ccc(CN(CCCn2ccnc2)Cc2cc(F)ccc2F)s1`, 20.3%.
To `Cc1cccc(C(=O)NC2CCN(c3cnn(C)c3)C2=O)n1` (stereo unspecified) belongs 12.5%; to `O=C(CCc1ccncc1)NCc1csc(Br)c1`, -7.74%; to `CCN(CC(O)c1ccc(C)cc1)C(=O)NC(C)C` (stereo unspecified), -1.93%.
As for `CC(C)(C)c1cnc(CN2CCCC2Cn2cccn2)o1` (stereo unspecified), the cytotoxicity at 70.5 h was -5.71%.
Under `Fc1ccc(CCC2CCCN(Cc3c[nH]cn3)C2)c(F)c1` (stereo unspecified) stands -3.29%; under `O=C(O)c1cc(S(=O)(=O)N2CCOc3ccccc32)cc(Cl)c1Cl`, -9.63%.
For the compound `Cc1nc(-c2ccccc2)sc1CNC1CCc2ncnn2C1` (stereo unspecified), the cytotoxicity at 70.5 h was -10.6%.
To `O=C(N1CCOCC1)N1CCc2ncc(CN3CCCCC3)n2CC1` belongs -12.1%; to `c1cc(-c2noc(C3CCC3)n2)cc(N2CCCCC2)n1`, 16.5%; to `CN1CCC2(C=C(C(=O)N3CCCC3)c3ccccc32)CC1`, 1.49%.
On to `CCc1noc(-c2cccc(OCC(=O)NC(C)C)c2)n1`, for which the cytotoxicity at 70.5 h was -7.23%.
To `Cn1cnnc1CCC(=O)N1CCCC(OCc2cccnc2)C1` (stereo unspecified) belongs -0.989%; to `c1coc(-c2noc(CN3CCc4cncnc4C3)n2)c1`, -7.56%.
To `CNC(=O)CN1CCN(C(=O)Nc2ccc(C)s2)CC1` belongs -1.2%.
Take `NCC1CCN(c2cnn(CCCn3cccn3)c(=O)c2)CC1`: the cytotoxicity at 70.5 h is -8.18%.
To `N#Cc1c(CN2CCCC2Cn2cccn2)cn2ccccc12` (stereo unspecified) belongs 18.8%; to `O=C(NCCN1CCCCCC1)c1n[nH]c(=O)c2ccccc12`, 1.79%.
To `OCCc1ncnn1Cc1cccc(Cl)c1` belongs 44.4%; to `COc1cc(CNC2CCCc3c2cnn3C)cc(OC)c1` (stereo unspecified), -16.8%; to `Cc1nc(COC[C@@H]2CC[C@H]3[C@H](CCN3C(=O)C3CC3)O2)cs1`, -7.97%.
Regarding `O=c1[nH]c(NC2CCCC2)nc2nccc(-c3cccs3)c12`, the cytotoxicity at 70.5 h is -4.19%.
To `Cc1cccnc1CN1CCN(c2noc(-c3ccccc3)n2)CC1` belongs 7.94%; to `Cc1cc(-c2cnc(N3CCNC(=O)C3)nc2-c2cccnc2C)on1`, -15.9%; to `Cc1ccc(C)c(S(=O)(=O)NCCNc2ccc(-n3cccc3)nn2)c1`, -7.55%.
On to `CN(CCNC(=O)Nc1ccncc1)C1CCCCC1`, for which the cytotoxicity at 70.5 h turned out to be 30.8%.
To `Cc1nc(C)n(C2CCCN(C(=O)CCCc3ccccn3)C2)n1` (stereo unspecified) belongs -7.71%; to `NCc1ccc(N2CCN(c3ncccn3)CC2)c(F)c1`, 6.72%.
For `CCCc1ccc(CN2CCN(c3ncccn3)[C@@H]3CS(=O)(=O)C[C@@H]32)o1`, the cytotoxicity at 70.5 h is -8.8%.
To `Cc1ccc(NC(=O)Nc2c(O)oc3ccccc3c2=O)cc1` belongs 4.11%.
To `COc1ccc2c(c1)nc1n2[C@@H](CNCc2ccccc2)COC1` belongs 10.1%; to `Cc1nnc(N2CCC(NS(C)(=O)=O)CC2)c(C#N)c1C`, -5.64%.
To `CN1CCCCC1C(=O)N1CCN(c2ccccc2C#N)CC1` (stereo unspecified) belongs -2.64%.
Turning to `O=C(N1CCOCC1)N1CC[C@@](O)(c2ccccc2)[C@H]2CCCC[C@@H]21`, the cytotoxicity at 70.5 h was -1.75%.
To `CCc1nnc(CN(CC)C(=O)C2CC(=O)N(C(C)(C)C)C2)o1` (stereo unspecified) belongs -4.84%; to `Cc1nc(CN2CCN(CCCc3nc4ccccc4o3)CC2)no1`, -0.419%.
To `CS(=O)(=O)N1C[C@H](C(=O)Nc2cnccn2)C[C@H]2OCC[C@H]21` belongs 24.9%.
Under `CO[C@H]1C[C@@H](O)C12CCN(C(=O)CCSCc1ccc(F)cc1)CC2` stands -18.7%; under `O=C(NCc1ccc(CN2CCCCC2)cc1)Nc1cccnc1`, -1.13%; under `c1ccc(NCCn2cc(C3CCCNC3)nn2)cc1` (stereo unspecified), -3.12%.
With `O=C1NCCCCC1Sc1ccc(F)cc1F` (stereo unspecified), the cytotoxicity at 70.5 h was found to be 7.77%.
To `CC(C#N)(NC(=O)c1ccc(C#N)cc1)C1CC1` (stereo unspecified) belongs -0.776%; to `Fc1ccc(C2CN(CCc3ccncc3)CCO2)cc1` (stereo unspecified), 14.4%; to `Cc1[nH]ccc1C(=O)Nc1cccc(CN2CCC(CO)CC2)c1`, 27.9%.
Take `CCN(CC)C(=O)CN(C)C(=O)c1cc(-c2cccc(Cl)c2)no1`: the cytotoxicity at 70.5 h was -15.3%.
To `Cc1nnc(SCCCNC(=O)Nc2ccc3c(c2)OCO3)s1` belongs 11.4%; to `CC(C)N(C)C(=O)c1coc(CN2CCN(c3ccccc3F)CC2)n1`, -3.77%; to `COCCC(=O)NCC1COc2cc(OC)ccc2C1` (stereo unspecified), -12.7%.
To `CN(CCCc1cnn(C)c1)Cc1cc2n(n1)CCNC2` belongs -4.75%; to `CN(Cc1ccco1)Cc1cnc2n1CCN(c1ccccn1)CC2`, -2.44%; to `CN1CCCCC12CCN(c1nncs1)CC2`, 1.8%.
Under `O=C(c1cc(C2CCCC2)no1)N1CC(O)C1` stands -3.97%.
`CCN(CCNC(=O)c1ccccc1Br)C1CC1`: the cytotoxicity at 70.5 h was -3.52%.
Under `Cc1ccc(CNc2cnn(CC(F)F)c2)cc1C` stands -0.638%; under `CCCNC(=O)C1CCCN(Cc2ccc(-n3cncn3)c(C)c2)C1` (stereo unspecified), -1.68%.
To `CCCOC1CCCN(C(=O)c2ccc(S(N)(=O)=O)cc2)C1` (stereo unspecified) belongs -3.49%; to `Cc1occc1C(=O)N1CCC2(CCN(Cc3nccs3)C2)CC1`, -11%.
To `CC(Cn1cccn1)NC(=O)NCCc1cnn(C)c1` (stereo unspecified) belongs -16.3%; to `O=C1CC(c2ccncc2)C2(CCN(Cc3nccs3)CC2)N1` (stereo unspecified), -7.32%.
As for `COc1ncccc1CNCc1c(C(C)C)nn(C)c1N(C)C`, the cytotoxicity at 70.5 h is -1.75%.
Under `O=C(Nc1ccc(-n2ccnc2)c(F)c1)C1CCN(C(=O)C2CC2)CC1` stands -1.97%; under `CCc1nc(CC(=O)N2CCC(C(=O)N(CC)CC)CC2)cs1`, -11.2%.
As for `Cc1ccc(N2CCCC(NC(=O)CCc3ccccn3)C2=O)cc1` (stereo unspecified), the cytotoxicity at 70.5 h turned out to be 0.525%.
As for `Cc1nc(C2CCCN2C(=O)Cn2cncn2)no1` (stereo unspecified), the cytotoxicity at 70.5 h is -9.87%.
Under `Cc1ccc(F)c(N2CCCC(Nc3nccn4cnnc34)C2=O)c1` (stereo unspecified) stands -11.1%.
For the compound `CNCc1cn(C2CCN(C(=O)NCc3ccco3)CC2)nn1`, the cytotoxicity at 70.5 h is -8.5%.
Under `COc1cccc(OCC(=O)NS(=O)(=O)c2cccnc2)c1` stands -3.41%.
Turning to `Cc1nccn1C1CCCN(C(=O)c2ccnc(-n3ccnc3)c2)C1` (stereo unspecified), the cytotoxicity at 70.5 h is 10.7%.
Under `CCn1/c(=N/C(=O)CSCC(=O)Nc2nccs2)sc2ccccc21` stands -0.443%; under `CN1CCN(C)C2(CCN(Cc3ccc(C4CCCCO4)o3)CC2)C1` (stereo unspecified), -1.75%; under `COc1cc2c(cc1C1CC(=O)NCc3nc(N(C)C)sc31)CCC2` (stereo unspecified), 0.498%.
Under `CC(C(=O)NC1CC1)S(=O)(=O)c1cc2c(cc1Cl)OCCO2` (stereo unspecified) stands -8.64%; under `Cc1nn(C)c(C)c1C1CCCN1C(=O)CCc1ccco1` (stereo unspecified), -1.9%; under `Cn1cc(C(=O)Nc2ccc3c(c2)N(C(=O)c2ccco2)CC3)nn1`, 0.738%.
Under `COC(=O)C(C)(C)NC(=O)C1CC(=O)N(C2CC2)C1` (stereo unspecified) stands -6.5%; under `COc1ccc(S(=O)(=O)NCCCc2ccc(N(C)C)cc2)cc1F`, -1.57%.
With `Cc1ccc(C(=O)N2CC[C@]3(C[C@@H](OCc4ccccn4)CO3)C2)nc1`, the cytotoxicity at 70.5 h was determined as 12.9%.
To `Cc1cc(CN2CCN(c3ccc4nncn4n3)CC2)no1` belongs -11.5%; to `Nc1ncccc1CN1CCOCC1CC(=O)NCc1ccccn1` (stereo unspecified), 19.3%; to `c1cn(Cc2nnc(C3CCN(C4CCNCC4)CC3)n2C2CC2)cn1`, -1.79%.
To `COc1ccc(CNc2nnc(CC(C)(C)C)o2)cc1C#N` belongs -3.97%; to `COc1ccccc1OCc1cc(C(=O)N2CCCCCC2CO)n[nH]1` (stereo unspecified), 8.73%.
To `CCCOc1ccc(C(=O)N[C@@H]2CCNC[C@H]2O)cc1Cl` belongs 2.76%; to `COc1ccc(OCCNC(=O)c2ccc3c(=O)[nH][nH]c(=O)c3c2)cc1`, -0.259%.
